Experimental data published in patent US6376617B1, “Bioactive derivatives of camptothecin” (Pharmacia & Upjohn S.p.A., priority 1997, dated 2002).

Tested on: human colon carcinoma (HT29)
Test: Antitumor activity on human colon carcinoma (HT29) transplanted in nude mice
Settings: HT29 sc in nude mice; for TI% 46th day (tumor inhibition %): day 46
Method: Tumor fragment were implanted sc. Treatment started when tumor was palpable. TI % (tumor inhibition %) was calculated at day 46.

[1] = iv q4dx6, dose 20 mg/kg, total dose 120 mg/kg

Compound | Tox [1] | TI% 46th day (tumor inhibition %) [1] | TI% 46th day (tumor inhibition %) (iv q4dx8, dose 5 mg/kg, total dose 40 mg/kg) | TI% 46th day (tumor inhibition %) (iv q4dx8, dose 10 mg/kg, total dose 80 mg/kg) | TI% 46th day (tumor inhibition %) (iv q4dx8, dose 20 mg/kg, total dose 160 mg/kg)
CCc1c2c(nc3ccc(O)cc13)-c1cc3c(c(=O)n1C2)COC(=O)[C@]3(O)CC [1a, 7-ethyl-10-hydroxycamptothecin, reference compound] | 1/7 | 97% |  |  | 
copolymer of N-(2-hydroxypropyl)methacrylamide, {7-ethyl-10-hydroxy-20-O-[N-methacryloyl-glycyl-L-phenylalanyl-L-leucyl-glycyl]camptothecin} and N-(2-hydroxypropyl)methacryloylglycinamide [A1] |  |  | 77% | 91% | 98%
